Measured values published in patent US10703746B2, “Mutant IDH1 inhibitors useful for treating cancer” (THE UNITED STATES OF AMERICA, AS REPRESENTED BY THE …, priority 2014, dated 2020).

Tests used:
IDH1 R132H = IDH1 R132H (Homo sapiens, UniProt O75874, R132H); experiment: IDH1 R132H enzymatic assay (NADPH depletion coupled to diaphorase/resazurin); assay type: biochemical
IDH1 R132C = IDH1 R132C (Homo sapiens, UniProt O75874, R132C); experiment: IDH1 R132C enzymatic assay (NADPH depletion coupled to diaphorase/resazurin); assay type: biochemical
Sequence of IDH1 R132C (O75874 whole entry R132C): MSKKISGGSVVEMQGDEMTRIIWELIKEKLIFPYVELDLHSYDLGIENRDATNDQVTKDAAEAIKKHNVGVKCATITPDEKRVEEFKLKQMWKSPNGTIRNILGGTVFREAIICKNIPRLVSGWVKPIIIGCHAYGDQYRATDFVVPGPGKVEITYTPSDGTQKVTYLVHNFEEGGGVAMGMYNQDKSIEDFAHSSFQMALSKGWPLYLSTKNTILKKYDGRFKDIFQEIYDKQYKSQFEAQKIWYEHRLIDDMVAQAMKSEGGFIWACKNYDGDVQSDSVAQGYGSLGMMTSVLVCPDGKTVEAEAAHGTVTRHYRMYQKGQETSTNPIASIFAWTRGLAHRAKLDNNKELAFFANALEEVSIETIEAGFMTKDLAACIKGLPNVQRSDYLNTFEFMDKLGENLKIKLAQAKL
Outline: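 NADPH depletion, read via diaphorase/resazurin coupling, after adding substrate at 0.6 mM α-KG and 0.012 mM NADPH. Beforehand, 0.00032 mg/mL enzyme sat with compound 30 min at room temperature in pH 6.5 potassium phosphate buffer with MgCl2, glycerol and BSA.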

[1] = IDH1 R132H enzymatic inhibition, IC50 class
[2] = IDH1 R132C enzymatic inhibition, IC50 class
[3] = enzymatic inhibition, IDH1 R132H
[4] = enzymatic inhibition, IDH1 R132C

Sequence of IDH1 R132H (O75874 whole entry R132H): as the sequence (O75874 whole entry R132C) above, with C132H counted along it

Row | Compound | IC50 (IDH1 R132H; [1]) [nM] | IC50 (IDH1 R132C; [2]) [nM] | IC50 (IDH1 R132H; [3]) [nM] | IC50 (IDH1 R132C; [4]) [nM]
1 | CCc1cccc(CC)c1-n1c2c(cc(-c3nc(-c4cccnc4)cs3)c1=O)C(=O)CC(C)(C)C2 [Compound 119] | 5000 to 20000 | 1000 to 5000 |  | 
2 | CCc1cccc(CC)c1-n1c(CC(C)C)c(C(=O)N[C@@H]2CCC[C@@H]2O)cc(-c2nc(-c3ccc(Cl)cc3)cs2)c1=O [Compound 187] | 300 to 1000 | 300 to 1000 |  | 
3 | CCc1cccc(C(=O)O)c1-n1c2c(cc(-c3nc(-c4ccc(Cl)cc4)cs3)c1=O)C(=O)CC(C)(C)C2 [Compound 58] | 300 to 1000 | 1000 to 5000 |  | 
4 | CCc1cccc(CC)c1-n1c(CC(C)C)c(C(=O)N2CC(=O)N[C@H](C(=O)O)C2)cc(-c2nc(-c3ccc(Cl)cc3)cs2)c1=O [Compound 193] | 300 to 1000 | 300 to 1000 |  | 
5 | CCc1cccc(CC)c1-n1c(CC(C)C)c(C(=O)N2CC(O)C2)cc(-c2nc(-c3ccc(Cl)cc3)cs2)c1=O [Compound 63] | 1000 to 5000 | 300 to 1000 |  | 
6 | CCc1cccc(CC)c1-n1c(CC(C)C)c(C(=O)N2CCNCC2)cc(-c2nc(-c3ccc(F)cc3)c(C)s2)c1=O [Compound 181] | < 300 | < 300 |  | 
7 | CCc1cccc(CC)c1-n1c(C)c(C(=O)N2CCN(C)CC2)cc(-c2nc(-c3ccc(Cl)cc3)cs2)c1=O [Compound 53] | 1000 to 5000 | 300 to 1000 |  | 
8 | CCc1cccc(CC)c1-n1c(CC(C)C)c(C(=O)N2CCNCC2)cc(-c2nc(-c3ccc(OC)cc3)c(C)s2)c1=O [Compound 224] | 300 to 1000 | 300 to 1000 |  | 
9 | CCc1cccc(CC)c1-n1c(C(C)C)c(C(=O)OC)cc(-c2nc(-c3ccc(Cl)cc3)cs2)c1=O [Compound 125] | 1000 to 5000 | 1000 to 5000 |  | 
10 | CCc1cccc(CC)c1-n1c(CC(C)C)c(C(=O)N2CCNCC2)cc(-c2nc(-c3ccc(Cl)cc3)cs2)c1=O [Compound 231] | < 300 | < 300 |  | 
11 | COc1ccc(OC)c(-n2c3c(cc(-c4nc(-c5ccc(Cl)cc5)cs4)c2=O)CCC(C)(C)C3)c1 [Compound 73] | 1000 to 5000 | 1000 to 5000 |  | 
12 | CCc1cccc(CC)c1-n1c(CC(C)C)c(C(=O)NCC(O)C(F)(F)F)cc(-c2nc(-c3ccc(Cl)cc3)cs2)c1=O (stereo not drawn) [Compound 127] | 300 to 1000 | < 300 |  | 
13 | CCc1cccc(CC)c1-n1c(C)c(C(=O)N2CCC(O)C2)cc(-c2nc(-c3ccc(Cl)cc3)cs2)c1=O (stereo not drawn) [Compound 103] | 1000 to 5000 | 5000 to 20000 |  | 
14 | CCc1cccc(CC)c1-n1c(C)c(C(=O)N[C@@H]2CCCC[C@@H]2N)cc(-c2nc(-c3ccc(Cl)cc3)cs2)c1=O [Compound 214] | 5000 to 20000 | 300 to 1000 |  | 
15 | CCc1cccc(CC)c1-n1c2c(cc(-c3nc(-c4cnc(C)nc4)c(C)s3)c1=O)C(=O)CC(C)(C)C2 [Compound 161] | 5000 to 20000 | 1000 to 5000 |  | 
16 | COc1ccc(OC)c(-n2c3c(cc(-c4nc(-c5ccc(Cl)cc5)cs4)c2=O)C(=O)NCC3)c1 [Compound 244] | 1000 to 5000 | 1000 to 5000 |  | 
17 | CCc1cccc(CC)c1-n1c(CC(C)C)c(C(=O)NC2CCCCC2O)cc(-c2nc(-c3ccc(Cl)cc3)cs2)c1=O (stereo not drawn) [Compound 159] | 1000 to 5000 | 1000 to 5000 |  | 
18 | COc1ccc([N+](=O)[O-])cc1-n1c2c(cc(-c3nc(-c4ccc(Cl)cc4)cs3)c1=O)C(=O)CC(C)(C)C2 [Compound 128] | 1000 to 5000 | 1000 to 5000 |  | 
19 | COc1ccc(OC)c(-n2cccc(-c3nc(-c4ccc(Cl)cc4)cs3)c2=O)c1 [Compound 78] | > 20000 | > 20000 |  | 
20 | CCc1cccc(CC)c1-n1c(CC(C)C)c(C(=O)N2CCNCC2C(=O)O)cc(-c2nc(-c3ccc(Cl)cc3)cs2)c1=O (stereo not drawn) [Compound 75] | 1000 to 5000 | 300 to 1000 |  | 
21 | CCc1cccc(CC)c1-n1c(C)c(C(=O)N2CCN[C@H](C(=O)O)C2)cc(-c2nc(-c3ccc(Cl)cc3)cs2)c1=O [Compound 60] | 300 to 1000 | 300 to 1000 |  | 
22 | CCOC(=O)c1cc(-c2nc(-c3ccc(Cl)cc3)cs2)c(=O)n(-c2c(CC)cccc2CC)c1-c1ccccc1 [Compound 3] | > 20000 | > 20000 |  | 
23 | CCc1cccc(CC)c1-n1c(C)c(C(=O)NC2CCC(N)CC2)cc(-c2nc(-c3ccc(Cl)cc3)cs2)c1=O (stereo not drawn) [Compound 237] | 5000 to 20000 | 5000 to 20000 |  | 
24 | COc1ccccc1Cn1c2c(cc(-c3nc(-c4ccc(Cl)cc4)cs3)c1=O)C(=O)CC(C)(C)C2 [Compound 203] | 1000 to 5000 | 1000 to 5000 |  | 

More lines, now with the values ahead:

Row | IC50 (IDH1 R132H; [1]) [nM] | IC50 (IDH1 R132C; [2]) [nM] | IC50 (IDH1 R132H; [3]) [nM] | IC50 (IDH1 R132C; [4]) [nM] | Compound
25 | < 300 | < 300 |  |  | CCc1cccc(CC)c1-n1c(C=C(C)C)c(C(=O)N2C[C@H]3CC[C@@H](C2)N3)cc(-c2nc(-c3ccc(Cl)cc3)cs2)c1=O [Compound 388]
26 | < 300 | < 300 |  |  | CCc1ncc(F)cc1-n1c(C=C(C)C)c(C(=O)N2CCNCC2)cc(-c2nc(-c3ccc(C(F)(F)F)cc3)cs2)c1=O [Compound 328]
27 | 1000 to 5000 | 300 to 1000 |  |  | CCc1cccc(CC)c1-n1c(C)c(C(=O)NCCCO)cc(-c2nc(-c3ccc(Cl)cc3)cs2)c1=O [Compound 262]
28 |  |  | 1000 to 5000 | 5000 to 20000 | CCc1cccc(CC)c1-n1c(C=C(C)C)c(C(=O)N2CCNCC2)cc(-c2nn(-c3ccc(Cl)cc3)cc2C(F)(F)F)c1=O [Compound 435]
29 |  |  | 1000 to 5000 | 300 to 1000 | CCc1cccc(CC)c1-n1c(C2CCCCC2)c(C(=O)N2CCNCC2)cc(-c2nc(-c3ccc(Cl)cc3)cs2)c1=O [Compound 549]
30 | 1000 to 5000 | 1000 to 5000 |  |  | CCc1cccc(CC)c1-n1c(C)c(C(=O)NC(C)C)cc(-c2nc(-c3ccc(Cl)cc3)cs2)c1=O [Compound 311]
31 |  |  | < 300 | < 300 | CCc1cccc(CC)c1-n1c(C=C(C)C)c(C(=O)N2CCNC3(CC3)C2)cc(-c2nc(-c3ccc(Cl)cc3)cs2)c1=O [Compound 431]
32 | 1000 to 5000 | 1000 to 5000 |  |  | CCc1cccc(CC)c1-n1c(C)c(C(=O)N(C)C)cc(-c2nc(-c3ccc(Cl)cc3)cs2)c1=O [Compound 271]
33 |  |  | < 300 | < 300 | CCOc1ncc(F)cc1-n1c(C=C(C)C)c(C(=O)N2CCNCC2)cc(-c2nc(-c3ccc(C(F)(F)F)cc3)cs2)c1=O [Compound 568]
34 |  |  | 300 to 1000 | < 300 | CCc1cccc(CC)c1-n1c(C=C(C)C)c(C(=O)N2CCC3(CNC3)C2)cc(-c2nc(-c3ccc(Cl)cc3)cs2)c1=O [Compound 519]
35 |  |  | < 300 | < 300 | CCOCc1c(C(=O)N2CCNCC2)cc(-c2nc(-c3ccc(Cl)cc3)cs2)c(=O)n1-c1c(CC)cccc1CC [Compound 404]
36 | 300 to 1000 | < 300 |  |  | COc1ccc(Cl)c(-n2c3c(cc(-c4nc(-c5ccc(Cl)cc5)cs4)c2=O)C(=O)CC(C)(C)C3)c1 [Compound 395]
37 |  |  | < 300 | < 300 | CC(C)=Cc1c(C(=O)N2CCNCC2)cc(-c2nc(-c3ccc(Cl)cc3)cs2)c(=O)n1-c1cc(Cl)ccc1OC(C)C [Compound 553]
38 |  |  | 1000 to 5000 | 1000 to 5000 | COc1ccc(C#N)cc1-n1c2c(cc(-c3nc(-c4ccc(Cl)cc4)cs3)c1=O)C(=O)CC(C)(C)C2 [Compound 509]
39 |  |  | < 300 | < 300 | CCc1ncc(OC)cc1-n1c(C=C(C)C)c(C(=O)N2CCNCC2)cc(-c2nc(-c3ccc(Cl)cc3)cs2)c1=O [Compound 416]
40 |  |  | < 300 | < 300 | CCc1cccc(OC(C)C)c1-n1c(C=C(C)C)c(C(=O)N2CCNCC2)cc(-c2nc(-c3ccc(Cl)cc3)cs2)c1=O [Compound 508]
41 | 300 to 1000 | < 300 |  |  | CCc1cccc(CC)c1-n1c(C=C(C)C)c(C(=O)N2CCC3(CCNC3)C2)cc(-c2nc(-c3ccc(Cl)cc3)cs2)c1=O (stereo not drawn) [Compound 659]
42 |  |  | < 300 | < 300 | CCOc1ccc(C)cc1-n1c(C=C(C)C)c(C(=O)N2CCNCC2)cc(-c2nc(-c3ccc(Cl)cc3)cs2)c1=O [Compound 528]
43 | 300 to 1000 | 300 to 1000 |  |  | CCc1cccc(CC)c1-n1c(CC(C)C)c(C(=O)N2CCNCC2)cc(-c2nc(-c3ccc(Cl)cc3F)c(C)s2)c1=O [Compound 632]
44 | < 300 | < 300 |  |  | CCc1cccc(CC)c1-n1c(C=C(C)C)c(C(=O)N2C[C@H]3CC[C@@H](C2)N3)cc(-c2nc(-c3ccc(C(F)(F)F)cc3)cs2)c1=O [Compound 323]
45 |  |  | > 20000 | 5000 to 20000 | COc1ccncc1-n1c2c(cc(-c3nc(-c4ccc(Cl)cc4)cs3)c1=O)C(=O)CC(C)(C)C2 [Compound 436]
46 |  |  | 5000 to 20000 | 5000 to 20000 | COc1cc(Cl)ccc1-n1c2c(cc(-c3nc(-c4ccc(Cl)cc4)cs3)c1=O)C(=O)CC(C)(C)C2 [Compound 579]
47 | 5000 to 20000 | 5000 to 20000 |  |  | COc1ccc(OC)c(-n2c3c(cc(-c4nc(-c5ccc(Cl)cc5)no4)c2=O)C(=O)CC(C)(C)C3)c1 [Compound 306]
48 |  |  | < 300 | 300 to 1000 | CCOc1ncc(Cl)cc1-n1c(C=C(C)C)c(C(=O)N2CCNCC2)cc(-c2nc(-c3ccc(C(F)(F)F)nc3)cs2)c1=O [Compound 513]
49 | > 20000 | > 20000 |  |  | O=C1CCCc2c1cc(-c1nc(-c3ccc(Cl)cc3)cs1)c(=O)n2-c1ccncc1 [Compound 368]
50 |  |  | < 300 | < 300 | CCc1cccc(CC)c1-n1c(C=C(C)C)c(C(=O)N2CCNC(CC)C2)cc(-c2nc(-c3ccc(Cl)cc3)cs2)c1=O (stereo not drawn) [Compound 550]
51 |  |  | < 300 | < 300 | CCc1cccc(CC)c1-n1c(C=C(C)C)c(C(=O)N2CC3(CNC3)C2)cc(-c2nc(-c3ccc(Cl)cc3)cs2)c1=O [Compound 512]
52 | < 300 | < 300 |  |  | CCc1cccc(CC)c1-n1c(C=C(C)C)c(C(=O)N2CCNC(CCO)C2)cc(-c2nc(-c3ccc(Cl)cc3)cs2)c1=O (stereo not drawn) [Compound 371]
53 | 300 to 1000 | < 300 |  |  | CCc1cccc(CC)c1-n1c(C=C(C)C)c(C(=O)N2CCNCC2C(C)C)cc(-c2nc(-c3ccc(Cl)cc3)cs2)c1=O (stereo not drawn) [Compound 332]
54 | < 300 | < 300 |  |  | CCc1ccc(F)cc1-n1c(C=C(C)C)c(C(=O)N2CCNCC2)cc(-c2nc(-c3ccc(Cl)cc3)cs2)c1=O [Compound 352]
